Literature values in US9782454B2 (LONGEVITY BIOTECH, INC., priority 2010, dated 2017).
Non-standard residues stand in square brackets, D forms with d. No end group written: not given here. dPhe(4-Cl) = N[C@H](Cc1ccc(Cl)cc1)C(=O)O

Assays:
mCRF2β = target: T1, mCRF2β (Mus musculus, UniProt Q60748); settings: cited from earlier work
T1 construct: expressed in transfected cells; host or cells: HEK-mCRF2β cells (value quoted from the literature)

mouse CRF2β = mouse CRF2β (Mus musculus, UniProt Q60748); settings: read-out: Kd for binding to mouse CRF2β; cited from earlier work
Sequence of mouse CRF2β (Q60748 1-431 isoform Q60748-2): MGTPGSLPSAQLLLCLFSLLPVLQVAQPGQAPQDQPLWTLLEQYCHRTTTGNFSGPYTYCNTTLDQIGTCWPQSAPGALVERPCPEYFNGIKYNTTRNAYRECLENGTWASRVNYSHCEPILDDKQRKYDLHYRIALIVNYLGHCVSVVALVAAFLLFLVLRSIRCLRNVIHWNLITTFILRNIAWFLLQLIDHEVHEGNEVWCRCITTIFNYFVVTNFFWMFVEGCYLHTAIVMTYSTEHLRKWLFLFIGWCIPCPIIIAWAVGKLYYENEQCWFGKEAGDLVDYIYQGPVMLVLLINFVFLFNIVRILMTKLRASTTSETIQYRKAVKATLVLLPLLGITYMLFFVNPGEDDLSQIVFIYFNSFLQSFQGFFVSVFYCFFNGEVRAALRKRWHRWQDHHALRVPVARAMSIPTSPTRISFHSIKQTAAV

rat CRF1 receptors = target: T2, rat CRF1 receptors (Rattus norvegicus, UniProt P35353); settings: read-out: Kd for binding to rat CRF1 receptors; cited from earlier work
T2 sequence (P35353 24-415): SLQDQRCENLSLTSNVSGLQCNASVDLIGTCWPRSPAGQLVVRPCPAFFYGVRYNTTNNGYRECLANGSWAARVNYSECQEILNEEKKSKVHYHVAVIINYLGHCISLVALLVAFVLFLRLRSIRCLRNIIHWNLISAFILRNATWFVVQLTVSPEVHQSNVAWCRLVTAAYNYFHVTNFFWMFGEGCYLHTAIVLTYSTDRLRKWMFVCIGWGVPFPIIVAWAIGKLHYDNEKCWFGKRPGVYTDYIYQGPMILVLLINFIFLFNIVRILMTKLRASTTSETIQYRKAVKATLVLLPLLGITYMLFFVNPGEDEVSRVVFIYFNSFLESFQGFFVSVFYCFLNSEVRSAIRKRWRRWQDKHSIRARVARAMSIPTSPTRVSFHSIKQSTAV

guinea pig ileum = settings: read-out: EC50 for contraction of guinea pig ileum; cited from earlier work
neurotensin receptor = target: T3, neurotensin receptor (Mus musculus, UniProt O88319); settings: read-out: IC50 for inhibition of {125I}-NT binding to neonatal mouse brain; cited from earlier work
T3 construct: from tissue; host or cells: neonatal mouse brain (value quoted from the literature)
T3 sequence (O88319 whole entry): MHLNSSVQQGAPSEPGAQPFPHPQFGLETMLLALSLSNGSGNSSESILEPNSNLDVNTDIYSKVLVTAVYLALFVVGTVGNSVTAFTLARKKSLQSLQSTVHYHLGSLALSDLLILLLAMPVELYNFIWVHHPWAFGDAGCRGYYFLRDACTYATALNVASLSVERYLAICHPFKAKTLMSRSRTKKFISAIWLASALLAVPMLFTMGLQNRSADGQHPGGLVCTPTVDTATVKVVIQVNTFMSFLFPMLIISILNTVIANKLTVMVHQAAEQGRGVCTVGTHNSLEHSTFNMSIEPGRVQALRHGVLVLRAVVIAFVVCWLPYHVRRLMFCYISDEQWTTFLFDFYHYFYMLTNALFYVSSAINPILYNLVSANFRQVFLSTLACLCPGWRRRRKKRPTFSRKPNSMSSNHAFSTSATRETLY

neurotensin receptors = settings: read-out: IC50 for inhibition of {Trp11}-NT binding to rat brain receptors; cited from earlier work
14.3.3 proteins = settings: read-out: KD, antagonist of 14.3.3 proteins; cited from earlier work
glucagon receptors = glucagon receptors (Homo sapiens, UniProt P47871); settings: cited from earlier work
Sequence of glucagon receptors (P47871 26-477): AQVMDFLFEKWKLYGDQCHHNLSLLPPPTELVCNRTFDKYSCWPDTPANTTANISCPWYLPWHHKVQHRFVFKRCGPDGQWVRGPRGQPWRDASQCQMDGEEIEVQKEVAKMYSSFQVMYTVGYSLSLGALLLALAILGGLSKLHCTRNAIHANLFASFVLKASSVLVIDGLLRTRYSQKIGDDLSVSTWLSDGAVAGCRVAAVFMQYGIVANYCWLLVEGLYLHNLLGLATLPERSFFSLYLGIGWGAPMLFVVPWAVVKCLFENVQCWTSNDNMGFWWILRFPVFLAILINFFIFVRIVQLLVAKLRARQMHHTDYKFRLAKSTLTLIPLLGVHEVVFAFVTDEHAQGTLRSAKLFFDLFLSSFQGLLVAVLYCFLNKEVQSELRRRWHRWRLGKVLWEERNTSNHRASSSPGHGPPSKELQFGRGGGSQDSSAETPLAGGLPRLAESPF

GRF receptors = target: T4, GRF receptors (Homo sapiens, UniProt Q02643); settings: cited from earlier work
T4 sequence (Q02643 23-423): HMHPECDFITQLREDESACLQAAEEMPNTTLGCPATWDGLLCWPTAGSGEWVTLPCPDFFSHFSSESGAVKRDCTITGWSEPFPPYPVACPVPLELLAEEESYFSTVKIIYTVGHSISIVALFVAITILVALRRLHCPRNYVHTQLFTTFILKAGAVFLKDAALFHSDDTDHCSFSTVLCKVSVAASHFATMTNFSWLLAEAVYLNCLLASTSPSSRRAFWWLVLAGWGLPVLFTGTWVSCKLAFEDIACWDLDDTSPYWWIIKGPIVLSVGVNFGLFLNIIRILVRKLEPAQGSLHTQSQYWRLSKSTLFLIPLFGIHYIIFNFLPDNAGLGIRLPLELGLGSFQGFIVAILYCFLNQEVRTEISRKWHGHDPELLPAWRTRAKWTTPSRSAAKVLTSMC

[1] = target: vasoactive intestinal peptide (VIP) receptor; settings: read-out: IC50, selective VIP antagonist; cited from earlier work
secretin receptors = secretin receptors (Homo sapiens, UniProt P47872); settings: cited from earlier work
Sequence of secretin receptors (P47872 23-440): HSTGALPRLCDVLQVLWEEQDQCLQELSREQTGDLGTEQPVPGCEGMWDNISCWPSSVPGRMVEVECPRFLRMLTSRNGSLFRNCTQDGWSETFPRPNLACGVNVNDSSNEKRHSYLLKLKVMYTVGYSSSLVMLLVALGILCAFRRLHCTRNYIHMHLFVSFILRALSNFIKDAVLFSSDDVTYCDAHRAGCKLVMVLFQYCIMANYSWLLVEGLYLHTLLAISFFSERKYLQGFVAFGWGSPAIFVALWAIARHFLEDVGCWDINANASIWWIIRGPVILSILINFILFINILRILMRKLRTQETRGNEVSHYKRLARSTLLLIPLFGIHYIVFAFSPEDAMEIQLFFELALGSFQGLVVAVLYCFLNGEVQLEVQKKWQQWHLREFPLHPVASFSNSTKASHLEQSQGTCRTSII

T1 sequence (Q60748 1-431 isoform Q60748-2): as the sequence (Q60748 1-431 isoform Q60748-2) above

Substance: Antisauvagine-30
- pA2, inhibition of sauvagine-stimulated cAMP accumulation in HEK-mCRF2β cells (mCRF2β): sauvagine-stimulated cAMP accumulation in HEK-mCRF2β cells (pA2 = 8.49). Prevents stress-
- Kd (mouse CRF2β): 0.0014 µM
- Kd (rat CRF1 receptors): 0.154 µM

Substance: JMV 449 (IARRHPYFL; Kinetensin)
- EC50 (guinea pig ileum): 0.0019 µM
- IC50 (neurotensin receptor): 0.00015 µM

Substance: Neuromedin N (rat, mouse, porcine, canine) (KIPYIL; Neuromedin N; UniProt P20068 142-147, looked up)
- IC50 (neurotensin receptors): 0.0167 µM

Substance: R18 (RYVVLPRPVCFEKGMNYTVR; Peptide F9) [Compound R18]
- Kd (14.3.3 proteins): ~0.08 µM

Substance: {D-p-C1-Phe6,Leu17}-VIP ([dPhe(4-Cl)]TDNYTRLRKQMAVKKYLNSILN-NH2)
- activity on glucagon receptors (glucagon receptors): no activity
- activity on GRF receptors (GRF receptors): no activity
- IC50 [1]: 0.126 µM
- activity on secretin receptors (secretin receptors): no activity
